Test [1] deals with T1, Human recombinant cathepsin K (Homo sapiens, UniProt P43235).
T1 sequence (P43235 115-329): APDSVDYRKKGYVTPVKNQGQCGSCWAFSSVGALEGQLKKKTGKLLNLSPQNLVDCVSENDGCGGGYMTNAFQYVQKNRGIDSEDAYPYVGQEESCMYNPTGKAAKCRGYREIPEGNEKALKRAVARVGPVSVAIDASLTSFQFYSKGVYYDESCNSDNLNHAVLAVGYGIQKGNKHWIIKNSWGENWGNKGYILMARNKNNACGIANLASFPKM
The test can be described thus: In vitro cathepsin Ki inhibition measurement, cathepsin K. Particulars: for Ki: human cathepsin K, steady-state, competitive model, read-out: In vitro Ki (nM) vs Cath K. Type of test: biochemical. The protocol:
Stock solutions of substrate or inhibitor were made up to 10 mM in 100% dimethylsulfoxide (DMSO) (Rathburns, Glasgow, U.K.) and diluted as appropriately required. In all cases the DMSO concentration in the assays was maintained at less than 1% (vol./vol.). The equilibrium inhibition constants (Ki^ss) for each compound were measured under steady-state conditions monitoring enzyme activity as a function of inhibitor concentration. […] B. […] The apparent inhibition constant (Ki) for each compound was determined on the basis that inhibition was reversible and occurred by a pure-competitive mechanism. […] F. Trends Biochem. […] Morrison, J. F. Biochim. Biophys. […] Curves were fitted by non-linear regression analysis (Prism) using a fixed value for the enzyme concentration.

Test [2] addresses T2, Human recombinant cathepsin S (Homo sapiens, UniProt P25774).
T2 construct: purchased Merck 219343; host or cells: E. coli
The experiment in a line: In vitro cathepsin Ki inhibition measurement, cathepsin S. It is filed as biochemical. Here is the method:
Stock solutions of substrate or inhibitor were made up to 10 mM in 100% dimethylsulfoxide (DMSO) (Rathburns, Glasgow, U.K.) and diluted as appropriately required. In all cases the DMSO concentration in the assays was maintained at less than 1% (vol./vol.). The equilibrium inhibition constants (Ki^ss) for each compound were measured under steady-state conditions monitoring enzyme activity as a function of inhibitor concentration. […] The apparent inhibition constant (Ki) for each compound was determined on the basis that inhibition was reversible and occurred by a pure-competitive mechanism. […] Biophys. […] Curves were fitted by non-linear regression analysis (Prism) using a fixed value for the enzyme concentration.

T2 sequence (P25774 115-331): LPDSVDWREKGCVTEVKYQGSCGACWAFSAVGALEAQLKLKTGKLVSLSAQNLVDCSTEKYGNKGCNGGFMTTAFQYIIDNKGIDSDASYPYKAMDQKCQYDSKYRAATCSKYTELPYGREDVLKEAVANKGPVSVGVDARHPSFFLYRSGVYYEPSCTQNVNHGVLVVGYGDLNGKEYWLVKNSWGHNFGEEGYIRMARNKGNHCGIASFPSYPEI

Consider `O=C(N[C@H](C(=O)N1C[C@H](Cl)[C@H]2OCC(=O)[C@H]21)C1CCCCC1)c1ccccc1` [EXAMPLE 1, N—((S)-2-((3aS,6S,6aS)-6-chloro-3-oxodihydro-2H-furo[3,2-b]pyrrol-4(5H,6H,6aH)-yl)-1-cyclohexyl-2-oxoethyl)benzamide], for which the Ki – broadly, a dissociation constant, usually derived from enzyme kinetics or from competition with a known ligand – in test [1] came to 35 nM.

In the case of `O=C(N[C@H](C(=O)N1C[C@H](Cl)[C@H]2OCC(=O)[C@H]21)C1CCCCC1)c1cccc(-n2cnnn2)c1` [EXAMPLE 2, N—((S)-2-((3aS,6S,6aS)-6-chloro-3-oxodihydro-2H-furo[3,2-b]pyrrol-4(5H,6H,6aH)-yl)-1-cyclohexyl-2-oxoethyl)-3-(1H-tetrazol-1-yl)benzamide], the “fold improvement in in vitro potency against human cathepsin S” value in test [2] (relative to compound 3) was 47 fold. The Ki in test [1] came out at 27 nM. Besides, the “fold improvement in in vitro potency against human cathepsin K” value in test [1] (relative to compound 3) came to 20.5 fold.

In the case of `O=C(N[C@H](C(=O)N1C[C@H](F)[C@H]2OCC(=O)[C@H]21)C1CCCCC1)c1ccccc1` [Compound 2], the “fold improvement in in vitro potency against human cathepsin S” value in test [2] (relative to Compound 1) is 3.8 fold. For the same molecule, in test [1], the Ki is 95 nM. For the same molecule, the “fold improvement in in vitro potency against human cathepsin K” value in test [1] (relative to Compound 1) came out at 3.2 fold.

`O=C(N[C@H](C(=O)N1C[C@@H](Cl)[C@H]2OCC(=O)[C@H]21)C1CCCCC1)c1cccc(-n2ccnc2)c1` [Compound 5]: in test [1], the Ki came out at 230 nM.

`O=C(N[C@@H](CC1CCCCC1)C(=O)N1CC[C@H]2OCC(=O)[C@H]21)c1ccccc1` [Prior art compound 38, reference compound]: the Ki in test [1] is > 4000 nM.

Turning to `O=C(N[C@H](C(=O)N1C[C@H](Cl)[C@H]2OCC(=O)[C@H]21)C1CCCCC1)c1cccc(-n2ccnc2)c1` [EXAMPLE 3, N—((S)-2-((3aS,6S,6aS)-6-chloro-3-oxodihydro-2H-furo[3,2-b]pyrrol-4(5H,6H,6aH)-yl)-1-cyclohexyl-2-oxoethyl)-3-(1H-imidazol-1-yl)benzamide], in test [1], the Ki amounted to 23 nM.

On to `O=C(N[C@H](C(=O)N1C[C@H](F)[C@H]2OCC(=O)[C@H]21)C1CCCCC1)c1cccc(-n2cnnn2)c1` [Compound 4], for which the “fold improvement in in vitro potency against human cathepsin S” value in test [2] (relative to compound 3) is reported as 3.4 fold. Further, in test [1], the Ki was 340 nM. The “fold improvement in in vitro potency against human cathepsin K” value in test [1] (relative to compound 3) is reported as 1.7 fold.

In the case of `O=C(N[C@H](C(=O)N1CC[C@H]2OCC(=O)[C@H]21)C1CCCCC1)c1cccc(-n2cnnn2)c1` [Compound 3], the Ki in test [1] came out at 560 nM.

(Values after patent US8008290B2, “Compounds” (priority 2009, dated 2011).)
